In general, TGI refers to the concentration at which net growth stops.

For 20 compounds, TGI results are on record in ChEMBL document CHEMBL2412995, “Design, synthesis and in vitro evaluation against human cancer cells of 5-methyl-5-styryl-2,5-dihydrofuran-2-ones, a new series of goniothalamin analogues” (2013).

Type in all cases: functional
Assay [1] is described as follows: Antiproliferative activity against human NCI-ADR-RES cells assessed as concentration required for total cell growth inhibition after 48 hrs by SRB assay.
The subject of a further assay is MCF7. Nature of the assay: Antiproliferative activity against human MCF7 cells assessed as concentration required for total cell growth inhibition after 48 hrs by SRB assay. The conditions noted are these: MCF7, 48 h. (In general: In SRB staining, fixed cells bind dye roughly in proportion to their protein.)
The test system of another assay is U-251. Nature of the assay: Antiproliferative activity against human U251 cells assessed as concentration required for total cell growth inhibition after 48 hrs by SRB assay. The conditions noted are these: U-251, 48 h.
Another assay relates to UACC-62. The experiment in a line: Antiproliferative activity against human UACC62 cells assessed as concentration required for total cell growth inhibition after 48 hrs by SRB assay. To be noted: UACC-62, 48 h.
A further assay deals with HaCaT. Nature of the assay: Antiproliferative activity against human HaCaT cells assessed as concentration required for total cell growth inhibition after 48 hrs by SRB assay.
A further assay deals with HT-29. Nature of the assay: Antiproliferative activity against human HT-29 cells assessed as concentration required for total cell growth inhibition after 48 hrs by SRB assay. The conditions noted are these: HT-29, 48 h.
Another assay concerns K562. Nature of the assay: Antiproliferative activity against human K562 cells assessed as concentration required for total cell growth inhibition after 48 hrs by SRB assay. The conditions noted are these: K562, 48 h.
A further assay relates to PC-3. Nature of the assay: Antiproliferative activity against human PC3 cells assessed as concentration required for total cell growth inhibition after 48 hrs by SRB assay. To be noted: PC-3, 48 h.
A further assay relates to 786-0. The experiment in a line: Antiproliferative activity against human 786-0 cells assessed as concentration required for total cell growth inhibition after 48 hrs by SRB assay. The conditions noted are these: 786-0, 48 h.

For the compound `COc1ccc(/C=C/C2(C)C=CC(=O)O2)c(OC)c1OC` (stereo not given), the TGI is 349 µM in assay [1]; 110 µM in the assay on MCF7; 87.2 µM in the assay on U-251; 71.5 µM in the assay with UACC-62; 217 µM with HaCaT; 133 µM with HT-29. The TGI with K562 is more than 1000 µM; with PC-3, 90 µM; with 786-0, 132 µM.
Regarding `COc1cccc2c1C(=O)c1c(O)c3c(c(O)c1C2=O)C[C@@](O)(C(=O)CO)C[C@@H]3O[C@H]1C[C@H](N)[C@H](O)[C@H](C)O1` [DOXORUBICIN], the concentration for total growth inhibition (TGI) in assay [1] is 10.3 µM; with MCF7 it was 4.9 µM; with U-251 it was 2.1 µM; in the assay with UACC-62, 0.2 µM; in the assay with HaCaT it was 0.4 µM; with HT-29, 3.6 µM. The TGI in the assay with K562 was 45.5 µM; with PC-3 it was 2.5 µM; in the assay on 786-0 it was 1 µM.
Regarding `O=C1C=CC[C@H](/C=C/c2ccccc2)O1` [GONIOTHALAMIN], the TGI turned out to be 14.5 µM in [1]; 11.2 µM in the assay on MCF7; 9.8 µM in the assay on U-251; 17.4 µM in the assay with UACC-62; 13.4 µM in the assay with HaCaT; 10 µM in the assay on HT-29. The total growth inhibition concentration (TGI) in the assay on K562 was found to be 927 µM; in the assay with PC-3 it was 9.6 µM; in the assay on 786-0, 13.9 µM.
As to `CC1(/C=C/c2cccc(O)c2)C=CC(=O)O1` (stereo not given), the total growth inhibition concentration (TGI) in assay [1] was 647 µM; in the assay with MCF7 it was 124 µM; in the assay with U-251, 118 µM; in the assay with UACC-62 it was 108 µM; in the assay with HaCaT, 88.1 µM; in the assay with HT-29, 97.4 µM. Besides, the TGI with K562 is more than 1000 µM; in the assay with PC-3, 98.8 µM; with 786-0, 196 µM.
For `CC1(/C=C/c2ccc(F)cc2)C=CC(=O)O1` (stereo not given), the TGI in assay [1] amounted to 25.7 µM; in the assay with MCF7 it was 38.5 µM; with U-251, 60.8 µM; in the assay on UACC-62 it was 55.3 µM; in the assay with HaCaT it was 47.5 µM; in the assay with HT-29, 34.9 µM. For the same compound, the TGI with K562 was more than 1000 µM; in the assay with PC-3, 46.5 µM; in the assay with 786-0, 101 µM.
In the case of `COc1ccc(/C=C/C2(C)C=CC(=O)O2)cc1` (stereo not given), the TGI in assay [1] was more than 1000 µM; in the assay with MCF7, 183 µM; with U-251 it was 127 µM; in the assay with UACC-62, 147 µM; in the assay with HaCaT it was 316 µM; in the assay with HT-29, 92.9 µM. Further, the values for the TGI in the assay with K562, in the assay with PC-3 and in the assay with 786-0 were more than 1000 µM, 145 µM and more than 1000 µM, respectively.
With `COc1ccc(/C=C/C2(C)C=CC(=O)O2)cc1OC` (stereo not given), the TGI in [1] stood at 111 µM; with MCF7, 78.9 µM; in the assay on U-251, 192 µM; with UACC-62 it was 84.1 µM; with HaCaT, 838 µM; in the assay on HT-29 it was 927 µM. Further, the TGI with K562 is more than 1000 µM; in the assay with PC-3 it was 176 µM; in the assay on 786-0, 22.9 µM.
For `CC1(/C=C/c2ccc(C(F)(F)F)cc2)C=CC(=O)O1` (stereo not given), the TGI in assay [1] amounted to 9.4 µM; in the assay with MCF7, 20.4 µM; with U-251, 15.7 µM; in the assay with UACC-62, 15.5 µM; in the assay on HaCaT it was 12.1 µM; in the assay on HT-29 it was 12.3 µM. For the same compound, the TGI turned out to be 652 µM in the assay with K562, 13.1 µM with PC-3 and 34 µM in the assay with 786-0.
With `COc1cc(/C=C/C2(C)C=CC(=O)O2)cc(OC)c1OC` (stereo not given), the total growth inhibition concentration (TGI) in assay [1] amounted to 123 µM; with MCF7, 56.6 µM; in the assay on U-251, 125 µM; with UACC-62, 178 µM; with HaCaT it was 175 µM; in the assay with HT-29, 390 µM. Besides, the TGI is more than 1000 µM with K562, 131 µM in the assay with PC-3 and 116 µM with 786-0.
As for `C[C@]1(/C=C/c2ccccc2)CC=CC(=O)O1`, the TGI came to 107 µM in assay [1]; 48 µM with MCF7; 27.5 µM with U-251; 37.2 µM with UACC-62; 50.7 µM in the assay with HaCaT; 41.1 µM with HT-29. Besides, the total growth inhibition concentration (TGI) with K562 is more than 1000 µM; in the assay on PC-3 it was 31.7 µM; with 786-0 it was 68.7 µM.
Turning to `COc1cc(/C=C/C2(C)C=CC(=O)O2)cc(OC)c1O` (stereo not given), the TGI in assay [1] was determined as 51.6 µM; with MCF7, 45.3 µM; in the assay with U-251 it was 40.7 µM; with UACC-62, 24.6 µM; in the assay with HaCaT it was 64.4 µM; in the assay on HT-29, 19.1 µM. Further, the TGI is more than 1000 µM with K562, 131 µM in the assay on PC-3 and 108 µM with 786-0.
For `COc1cccc(/C=C/C2(C)C=CC(=O)O2)c1` (stereo not given), the TGI in [1] worked out at 48.6 µM; in the assay on MCF7, 25.3 µM; in the assay on U-251, 37.6 µM; with UACC-62, 55.8 µM; with HaCaT, 5.7 µM; with HT-29, 17 µM. Besides, the TGI in the assay on K562 is more than 1000 µM; in the assay with PC-3 it was 31.6 µM; with 786-0, 70 µM.
Turning to `COc1cc(OC)c(/C=C/C2(C)C=CC(=O)O2)c(OC)c1` (stereo not given), the concentration for total growth inhibition (TGI) stood at 229 µM in assay [1]; 102 µM with MCF7; 193 µM with U-251; 208 µM with UACC-62; 458 µM in the assay with HaCaT; 127 µM with HT-29. Moreover, the concentration for total growth inhibition (TGI) is more than 1000 µM in the assay on K562, 239 µM in the assay on PC-3 and 459 µM in the assay with 786-0.
As for `COc1ccc(/C=C/C2(C)C=CC(=O)O2)c(OC)c1` (stereo not given), the TGI in [1] is 151 µM; in the assay on MCF7 it was 43.5 µM; with U-251, 62.8 µM; in the assay with UACC-62 it was 80.1 µM; in the assay with HaCaT, 53.6 µM; in the assay with HT-29, 57.5 µM. Also, the concentration for total growth inhibition (TGI) in the assay on K562 was more than 1000 µM; in the assay on PC-3, 63.5 µM; with 786-0 it was 108 µM.
As to `COc1cc(OC)c(OC)cc1/C=C/C1(C)C=CC(=O)O1` (stereo not given), the TGI was 158 µM in [1]; 144 µM in the assay on MCF7; 160 µM with U-251; 127 µM in the assay on UACC-62; 180 µM in the assay with HaCaT; 127 µM with HT-29. Also, the TGI is more than 1000 µM with K562, 184 µM with PC-3 and 205 µM in the assay with 786-0.
`CC1(/C=C/c2ccccc2C(F)(F)F)C=CC(=O)O1` (stereo not given): the TGI in [1] was 12.2 µM; in the assay with MCF7, 13.5 µM; in the assay with U-251, 14.1 µM; with UACC-62, 17.7 µM; with HaCaT, 12.7 µM; with HT-29, 15.8 µM. In addition, the TGI in the assay on K562 turned out to be 573 µM; in the assay with PC-3, 17.9 µM; with 786-0, 27.9 µM.
For `CC1(/C=C/c2ccccc2)C=CC(=O)O1` (stereo not given), the TGI in [1] was 414 µM; with MCF7, 95.3 µM; in the assay with U-251 it was 89.8 µM; with UACC-62, 97.2 µM; in the assay with HaCaT, 119 µM; in the assay with HT-29 it was 123 µM. Further, the TGI is more than 1000 µM with K562, 86.9 µM in the assay with PC-3 and 170 µM in the assay on 786-0.
For the compound `COc1ccccc1/C=C/C1(C)C=CC(=O)O1` (stereo not given), the TGI came out at 64.5 µM in [1]; 27 µM in the assay with MCF7; 41.1 µM in the assay with U-251; 31 µM in the assay with UACC-62; 30.8 µM in the assay on HaCaT; 30.8 µM in the assay with HT-29. Moreover, the TGI with K562 was 860 µM; in the assay on PC-3, 34.2 µM; with 786-0 it was 35.4 µM.
With `CC1(/C=C/c2ccccc2O)C=CC(=O)O1` (stereo not given), the TGI in assay [1] was determined as 78 µM; in the assay with MCF7 it was 46.2 µM; in the assay on U-251 it was 70.9 µM; in the assay with UACC-62, 92.5 µM; in the assay on HaCaT, 57.3 µM; in the assay on HT-29, 31.3 µM. The TGI is more than 1000 µM in the assay with K562, 112 µM with PC-3 and 136 µM with 786-0.
Take `CC1(/C=C/c2ccc(O)cc2)C=CC(=O)O1` (stereo not given): the TGI in assay [1] was found to be 111 µM; in the assay on MCF7, 69.1 µM; in the assay with U-251, 107 µM; with UACC-62, 55.3 µM; with HaCaT, 81.2 µM; in the assay with HT-29, 122 µM. Moreover, the figures for the TGI with K562, in the assay on PC-3 and in the assay on 786-0 were more than 1000 µM, 138 µM and 143 µM, respectively.
